Laboratory results as given in ChEMBL document CHEMBL1201862, “PubChem BioAssay data set” (2004).
Activity calls are given as the source filed them.

Assays:
X-box-binding protein 1 = molecular target: T1, X-box-binding protein 1 (Homo sapiens, UniProt P17861); format: functional, Cricetulus griseus;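 note: confirmatory dose-response counter-screen serving a CHOP assay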
T1 sequence (P17861 whole entry): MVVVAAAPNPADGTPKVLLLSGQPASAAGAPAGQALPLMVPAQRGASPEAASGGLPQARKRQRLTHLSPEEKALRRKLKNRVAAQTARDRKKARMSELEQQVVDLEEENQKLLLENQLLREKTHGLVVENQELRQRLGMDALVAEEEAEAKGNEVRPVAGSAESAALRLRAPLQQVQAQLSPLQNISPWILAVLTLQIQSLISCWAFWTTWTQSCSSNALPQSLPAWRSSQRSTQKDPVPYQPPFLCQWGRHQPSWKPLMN

HEK293 [1] = assay: inhibition of NOD1-driven NF-kB reporter – cell-based, luminescence, uHTS, primary screen (AID 1578); format: functional; conditions: Homo sapiens
HEK293 [2] = assay: cells; format: functional, cell-based; conditions: Homo sapiens
HEK293 [3] = assay: cells; format: functional, cell-based; conditions: Homo sapiens; remark: listed apart in the source
[4] = molecular target: Nucleotide-binding oligomerization domain-containing protein 2 (Homo sapiens, UniProt Q9HC29); assay: inhibition of NOD2-driven NF-kB reporter – cell-based, luminescence, uHTS, HEK293 (AID 1566); format: functional
Chain of Nucleotide-binding oligomerization domain-containing protein 2 (Q9HC29 whole entry, the tested form may be a part): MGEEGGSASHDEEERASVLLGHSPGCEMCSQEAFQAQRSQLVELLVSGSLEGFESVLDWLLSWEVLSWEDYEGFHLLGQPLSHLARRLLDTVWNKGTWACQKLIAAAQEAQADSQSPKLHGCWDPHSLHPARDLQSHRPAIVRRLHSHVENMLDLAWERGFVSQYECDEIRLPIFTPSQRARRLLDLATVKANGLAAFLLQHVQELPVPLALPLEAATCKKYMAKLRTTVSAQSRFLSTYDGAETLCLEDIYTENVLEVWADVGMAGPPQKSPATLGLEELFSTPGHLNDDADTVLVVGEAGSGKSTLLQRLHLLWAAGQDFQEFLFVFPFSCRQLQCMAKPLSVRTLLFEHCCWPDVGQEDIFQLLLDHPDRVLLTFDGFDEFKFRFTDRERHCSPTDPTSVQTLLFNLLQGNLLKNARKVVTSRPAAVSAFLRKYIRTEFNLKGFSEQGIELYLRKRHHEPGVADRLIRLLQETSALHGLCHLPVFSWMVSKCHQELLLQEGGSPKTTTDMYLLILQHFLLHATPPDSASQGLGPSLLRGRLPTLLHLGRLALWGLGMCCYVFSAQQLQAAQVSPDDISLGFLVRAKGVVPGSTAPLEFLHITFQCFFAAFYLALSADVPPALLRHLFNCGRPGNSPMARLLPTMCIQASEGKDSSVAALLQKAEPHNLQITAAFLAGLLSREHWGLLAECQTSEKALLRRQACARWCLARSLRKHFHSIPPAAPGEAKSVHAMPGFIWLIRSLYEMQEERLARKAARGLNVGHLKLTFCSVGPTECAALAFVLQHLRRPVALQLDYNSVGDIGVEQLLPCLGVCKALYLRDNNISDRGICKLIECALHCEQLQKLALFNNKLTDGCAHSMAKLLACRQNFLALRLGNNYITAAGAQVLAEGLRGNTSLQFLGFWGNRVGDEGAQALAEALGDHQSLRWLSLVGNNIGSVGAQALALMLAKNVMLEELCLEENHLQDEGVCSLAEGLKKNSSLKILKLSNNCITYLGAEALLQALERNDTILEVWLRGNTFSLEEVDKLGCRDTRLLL

HEK293 [5] = assay: NOD2 signaling inhibitors in MDP-stimulated cells, cell-based, uHTS, luminescence (AID 2001); format: functional; conditions: Homo sapiens
HEK293 [6] = assay: cells; format: functional, cell-based; conditions: Homo sapiens; remark: listed apart in the source
[7] = NIH-3T3 fibroblast cytotoxicity, dose response, cytotoxicity control, cell-based, fluorescence, Alamar Blue, secondary assay (AID 2327); format: functional;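 note: NIH-3T3 mouse fibroblasts cultured with fluconazole at 8 µg/mL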
[8] = fluconazole-exposed Candida albicans growth modulators – fluorescence, retest, confirmation (AID 2467); format: functional, cell-based
[9] = molecular target: Glucose-6-phosphate 1-dehydrogenase (Homo sapiens, UniProt P11413); assay: inhibition of Homo sapiens G6PD, dose series – biochemical, fluorescence, selectivity assay for P. falciparum G6PD inhibitor project, dose response (AID 504792); format: functional
Chain of Glucose-6-phosphate 1-dehydrogenase (P11413 whole entry): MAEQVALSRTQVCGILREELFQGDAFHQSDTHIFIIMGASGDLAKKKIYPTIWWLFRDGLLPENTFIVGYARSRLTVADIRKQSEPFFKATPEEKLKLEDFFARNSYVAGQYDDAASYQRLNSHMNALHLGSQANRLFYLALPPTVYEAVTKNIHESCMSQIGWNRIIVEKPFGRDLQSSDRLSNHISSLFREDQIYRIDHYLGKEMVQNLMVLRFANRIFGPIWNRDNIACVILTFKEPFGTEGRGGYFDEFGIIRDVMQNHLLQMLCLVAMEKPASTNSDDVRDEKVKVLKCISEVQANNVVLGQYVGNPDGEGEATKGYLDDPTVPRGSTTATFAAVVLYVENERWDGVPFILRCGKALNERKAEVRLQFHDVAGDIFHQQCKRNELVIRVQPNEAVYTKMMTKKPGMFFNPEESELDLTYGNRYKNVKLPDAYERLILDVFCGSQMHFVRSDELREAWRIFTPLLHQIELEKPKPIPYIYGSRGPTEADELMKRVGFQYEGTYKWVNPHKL

[10] = Luminescence Cell-Based Dose Retest to Confirm Inhibitors of Cancer Stem Cells. [Related pubchem assays (depositor defined):AID2717, AID2721]; format: functional; conditions: Homo sapiens
[11] = molecular target: FAD-linked sulfhydryl oxidase ALR (Homo sapiens, UniProt P55789); assay: ALR-catalysed DTT oxidation blockers – biochemical, H2O2 detection, luminescence, cherry-pick, dose response (AID 493248)
Chain of FAD-linked sulfhydryl oxidase ALR (P55789 whole entry): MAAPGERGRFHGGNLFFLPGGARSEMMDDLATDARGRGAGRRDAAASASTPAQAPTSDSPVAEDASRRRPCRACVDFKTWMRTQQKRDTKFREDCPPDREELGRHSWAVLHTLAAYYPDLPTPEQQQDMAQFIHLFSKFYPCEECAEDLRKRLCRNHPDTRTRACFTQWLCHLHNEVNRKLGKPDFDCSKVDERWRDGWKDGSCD

Vero [12] = assay: cells; format: functional, cell-based; conditions: Chlorocebus sabaeus
Vero [13] = assay: cells; format: functional; conditions: Chlorocebus sabaeus
Estrogen receptor beta [14] = molecular target: T2, Estrogen receptor beta (Homo sapiens, UniProt Q92731);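 note: recombinant ER-beta bound to coactivator SRC1 peptide in presence of estradiol agonist; inhibitors block coactivator peptide binding and lower the FRET signal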
T2 sequence (Q92731 whole entry): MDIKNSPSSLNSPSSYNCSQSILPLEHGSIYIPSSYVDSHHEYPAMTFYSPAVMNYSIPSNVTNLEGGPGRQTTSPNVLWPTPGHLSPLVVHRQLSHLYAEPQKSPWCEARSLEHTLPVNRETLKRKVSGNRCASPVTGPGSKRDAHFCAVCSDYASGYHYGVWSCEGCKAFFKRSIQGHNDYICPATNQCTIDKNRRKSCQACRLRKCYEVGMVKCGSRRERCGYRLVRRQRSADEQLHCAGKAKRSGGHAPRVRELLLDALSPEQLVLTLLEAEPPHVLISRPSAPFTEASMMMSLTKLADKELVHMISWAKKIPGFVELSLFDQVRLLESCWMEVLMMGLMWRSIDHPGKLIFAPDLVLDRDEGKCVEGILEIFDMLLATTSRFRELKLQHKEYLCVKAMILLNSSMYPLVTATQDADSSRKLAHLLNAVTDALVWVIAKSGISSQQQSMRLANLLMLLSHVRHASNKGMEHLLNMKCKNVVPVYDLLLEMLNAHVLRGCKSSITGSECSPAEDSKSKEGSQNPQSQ

Estrogen receptor beta [15] = molecular target: T2, Estrogen receptor beta; assay: blockers of SRC-3 recruitment to ERβ – biochemical, ELISA, streptavidin-HRP readout, orthogonal assay, confirmation (AID 1060)
[16] = molecular target: Ras and Rab interactor 1/Tyrosine-protein kinase ABL1 (Homo sapiens, UniProt P00519+Q13671); format: functional;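 note: biochemical TR-FRET dose-response test measuring inhibition of binding between Rin1 and Abl proteins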
Chain of Ras and Rab interactor 1/Tyrosine-protein kinase ABL1 (P00519 whole entry): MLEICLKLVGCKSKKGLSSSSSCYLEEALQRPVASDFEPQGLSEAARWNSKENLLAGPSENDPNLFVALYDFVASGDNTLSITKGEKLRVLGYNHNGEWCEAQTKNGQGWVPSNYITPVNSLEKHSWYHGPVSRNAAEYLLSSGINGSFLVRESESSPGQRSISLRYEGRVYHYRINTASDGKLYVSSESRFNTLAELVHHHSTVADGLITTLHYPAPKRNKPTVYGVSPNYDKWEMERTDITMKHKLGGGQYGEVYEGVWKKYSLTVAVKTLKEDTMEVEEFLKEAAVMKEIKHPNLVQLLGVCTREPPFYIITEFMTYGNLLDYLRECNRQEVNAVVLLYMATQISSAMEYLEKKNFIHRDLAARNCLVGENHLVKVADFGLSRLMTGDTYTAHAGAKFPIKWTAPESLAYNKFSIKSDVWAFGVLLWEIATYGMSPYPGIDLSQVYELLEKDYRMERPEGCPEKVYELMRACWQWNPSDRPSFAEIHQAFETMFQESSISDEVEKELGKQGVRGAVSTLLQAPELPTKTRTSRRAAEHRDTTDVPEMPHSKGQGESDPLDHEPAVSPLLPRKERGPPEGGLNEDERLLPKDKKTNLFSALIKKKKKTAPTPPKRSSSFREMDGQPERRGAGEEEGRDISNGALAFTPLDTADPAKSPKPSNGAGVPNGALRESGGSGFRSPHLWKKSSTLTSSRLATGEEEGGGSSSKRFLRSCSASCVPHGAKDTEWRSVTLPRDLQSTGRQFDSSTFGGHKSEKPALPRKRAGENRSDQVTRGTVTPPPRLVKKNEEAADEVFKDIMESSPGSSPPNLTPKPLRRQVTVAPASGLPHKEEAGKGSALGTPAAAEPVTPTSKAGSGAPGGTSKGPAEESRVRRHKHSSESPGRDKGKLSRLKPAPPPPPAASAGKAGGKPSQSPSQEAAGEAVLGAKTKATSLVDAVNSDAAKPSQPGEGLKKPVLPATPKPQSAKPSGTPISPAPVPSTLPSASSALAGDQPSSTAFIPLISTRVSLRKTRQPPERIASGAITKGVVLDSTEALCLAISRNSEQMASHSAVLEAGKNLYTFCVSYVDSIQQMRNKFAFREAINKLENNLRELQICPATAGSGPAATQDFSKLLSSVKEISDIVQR
Chain of Ras and Rab interactor 1/Tyrosine-protein kinase ABL1 (Q13671 whole entry): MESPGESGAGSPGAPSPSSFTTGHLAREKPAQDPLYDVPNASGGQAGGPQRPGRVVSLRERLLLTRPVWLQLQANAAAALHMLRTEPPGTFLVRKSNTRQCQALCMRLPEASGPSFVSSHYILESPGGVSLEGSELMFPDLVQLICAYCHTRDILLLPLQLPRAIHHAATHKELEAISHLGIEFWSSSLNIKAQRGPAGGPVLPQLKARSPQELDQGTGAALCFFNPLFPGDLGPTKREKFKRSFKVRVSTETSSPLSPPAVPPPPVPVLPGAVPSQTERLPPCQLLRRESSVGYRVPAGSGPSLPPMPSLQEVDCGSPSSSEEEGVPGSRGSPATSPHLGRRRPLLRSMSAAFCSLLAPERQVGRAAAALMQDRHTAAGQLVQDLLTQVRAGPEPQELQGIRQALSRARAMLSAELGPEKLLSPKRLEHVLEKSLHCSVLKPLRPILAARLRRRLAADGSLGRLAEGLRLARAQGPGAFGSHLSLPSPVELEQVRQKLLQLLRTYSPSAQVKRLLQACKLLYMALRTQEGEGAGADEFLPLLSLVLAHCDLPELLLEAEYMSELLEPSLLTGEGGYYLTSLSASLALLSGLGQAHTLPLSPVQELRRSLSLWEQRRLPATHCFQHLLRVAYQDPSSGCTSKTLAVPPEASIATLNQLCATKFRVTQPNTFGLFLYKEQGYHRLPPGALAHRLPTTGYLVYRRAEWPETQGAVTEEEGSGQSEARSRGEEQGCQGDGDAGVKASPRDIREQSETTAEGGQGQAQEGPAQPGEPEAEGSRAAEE

[17] = molecular target: T3, Ubiquitin-conjugating enzyme E2 N (Homo sapiens, UniProt P61088); format: functional;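 note: Dose-response confirmation in a TR-FRET assay detecting UBC13-driven polyubiquitin chain formation, inhibition measured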
T3 sequence (P61088 whole entry): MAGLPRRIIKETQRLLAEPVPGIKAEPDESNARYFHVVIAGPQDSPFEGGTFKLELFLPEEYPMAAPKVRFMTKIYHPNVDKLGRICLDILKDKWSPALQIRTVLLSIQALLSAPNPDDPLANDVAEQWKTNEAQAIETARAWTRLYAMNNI

Paired box protein Pax-8 = Paired box protein Pax-8 (Homo sapiens, UniProt Q06710); assay: PAX8 transcriptional activity inhibition in RMG-I – RMG-I cells, luciferase, cherry-pick, dose response (AID 687027); format: functional, cell-based;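 note: luciferase reporter driven by Pax8 target thyroperoxidase promoter measured by SteadyGlo luminescence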
Chain of Paired box protein Pax-8 (Q06710 whole entry): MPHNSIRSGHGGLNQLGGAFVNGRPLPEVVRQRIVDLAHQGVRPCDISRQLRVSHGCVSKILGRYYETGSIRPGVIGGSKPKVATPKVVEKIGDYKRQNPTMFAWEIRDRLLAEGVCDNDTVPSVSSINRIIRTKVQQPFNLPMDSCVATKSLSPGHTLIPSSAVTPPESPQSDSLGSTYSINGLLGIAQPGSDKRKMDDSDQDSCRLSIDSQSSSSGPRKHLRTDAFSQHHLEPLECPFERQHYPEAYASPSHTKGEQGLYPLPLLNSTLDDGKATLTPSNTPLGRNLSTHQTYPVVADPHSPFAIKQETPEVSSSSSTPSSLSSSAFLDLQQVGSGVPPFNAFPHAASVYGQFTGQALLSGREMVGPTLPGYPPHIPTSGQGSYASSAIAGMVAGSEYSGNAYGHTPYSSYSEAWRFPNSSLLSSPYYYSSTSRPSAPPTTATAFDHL

[18] = OVCAR8 cell viability loss – plate reader, dry powder samples, PAX8 project, dose response (AID 743197); format: functional, cell-based; conditions: OVCAR-8

CCC1CCc2c(sc(NC(=O)c3ccoc3C)c2C(N)=O)C1 (stereo not given)
Absolute IC50 (XBP1) (X-box-binding protein 1): 10 µM

O=C(COc1ccc(Cl)cc1)Nc1nc(-c2ccc(S(=O)(=O)N3CCOCC3)cc2)cs1
EC50 (HEK293 [1]): 10.3 µM (active)
IC50 (HEK293 [2]): 3.9 µM (active)
IC50 (HEK293 [3]): > 20 µM (inactive)
EC50 [4]: 17 µM (active)
IC50 (HEK293 [5]): 4.96 µM (active)
IC50 (HEK293 [6]): > 20 µM (inactive)

CC1(C)CN(c2ccccc2)N(C(=O)c2ccc(C#N)cc2)C1=O
EC50 [7]: 4.88 µM (active)
EC50 [8]: > 38 µM (not active)
IC50 [9]: > 80 µM (inactive)
AC50 [10]: 3.56 µM (active)
AC50 [11]: 1.72 µM (active)

Cc1c(CCO)c(=O)[nH]n1C(=O)c1c(F)cccc1F
IC50 (Vero [12]): 15.4 µM (active)
CC50 (Vero [13]): > 25 µM (active)

CCOc1ccccc1Nc1nnc(SC(C)C(=O)Nc2nc(-c3ccccc3)cs2)s1 (stereo not given)
IC50 (Vero [12]): > 12.5 µM (active)

O=C(Nc1ccc2c(c1)OCO2)c1cccc2c1C(=O)N(Cc1cccnc1)C2
IC50 (Estrogen receptor beta [14]): > 50 µM (not active)
IC50 (Estrogen receptor beta [15]): 3.13 µM (not active)

COc1ccc(C2c3c(nc[nH]c3=O)Oc3nc[nH]c(=O)c32)cc1
IC50 [16]: 2.87 µM (active)

CC1CCCC(C)N1CCCNC(=O)C1CCCN(c2ncnc3c2nc2n3CCCCC2)C1 (stereo not given)
IC50 [17]: > 20 µM (inactive)

CN(C(=O)CCN1C(=O)/C(=C/c2ccccc2)SC1=S)C1CCS(=O)(=O)C1 (stereo not given)
CC50 (Vero [13]): 21.2 µM (active)

CN(C(=O)c1ccc(NC(=O)Cc2cccc(NC(=O)C3CCN(C(=O)c4ccccc4)CC3)c2)cc1)C1CC1
IC50 [16]: 15.3 µM (inactive)

C[C@@H]1CCCCO[C@@H](CN(C)C(=O)Nc2ccc(C(F)(F)F)cc2)[C@H](C)CN([C@H](C)CO)C(=O)c2cc(NS(=O)(=O)c3ccccc3)ccc2O1
AC50 (Paired box protein Pax-8): 6.96 µM (active)
AC50 [18]: > 70 µM (inactive)

Cc1ccc(Cc2cncc(O)c2)cc1S(=O)(=O)O
IC50 (Estrogen receptor beta [14]): 13.5 µM (active)
IC50 (Estrogen receptor beta [15]): 0.353 µM (not active)
